Consider 14 molecules from PubChem BioAssay (NCI).

Experiment in all cases: DTP human tumour cell line panel, 48 h
Test [1] concerns M14 melanoma.
The subject of test [2] is A549 NSCLC.
For test [3], the system named is SF-295 CNS.
In test [4] the test system is U251 CNS.
For test [5], the system named is SF-539 CNS.
Test [6] deals with HCC-2998 colon.
The test system of test [7] is TK-10 renal.
Test [8] has as its system OVCAR-3 ovarian.
In test [9] the test system is SK-MEL-2 melanoma.
For test [10], the system named is HL-60(TB) leukemia.

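Briefly, cells in 96-well plates were exposed to five compound concentrations for 48 h, and endpoints were estimated by linear interpolation. Here, GI50 denotes the concentration required for 50% inhibition of growth. TGI is the concentration that stops growth completely.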

The term GI50 denotes the concentration that inhibits growth by half. By TGI is commonly meant the concentration at which net growth stops. A higher TGI goes with less potent growth arrest. Take `COc1ccc2c(c1)C=C1CSCC3=Cc4cc(OC)ccc4OC13O2`: the GI50 in test [1] was 0.323 µM; in test [2] it was 0.492 µM; in test [3] it was 0.316 µM; in [4], 0.427 µM; in [5] it was 0.254 µM; in test [6], 1.07 µM. For the same molecule, the GI50 in test [7] was greater than 100 µM; in test [8], 0.295 µM; in test [9], 0.625 µM; in test [10], 0.27 µM. For the same molecule, the concentration for total growth inhibition (TGI) is greater than 100 µM in [1]; greater than 100 µM in test [2]; greater than 100 µM in test [3]; greater than 100 µM in test [4]; 0.816 µM in test [5]; greater than 100 µM in test [6]. In addition, the TGI in [7] was greater than 100 µM; in [8] it was 0.884 µM; in test [9] it was greater than 100 µM; in test [10] it was 0.801 µM.

`OC1c2ccccc2C2C(O)c3ccccc3C12` (stereo not given): the concentration for total growth inhibition (TGI) in test [1], in test [2], in test [3], in [4], in [5] and in [6] was greater than 100 µM each time. Also, the TGI in test [7], in test [8], in [9] and in [10] was greater than 100 µM each time.

`O=C1COCCN1c1ccc(NCc2cn(C(=O)c3ccc(Cl)cc3)c3ccccc23)cc1`: the GI50 in test [1] was 7.92 µM; in test [2], 3.36 µM; in test [3], 1.83 µM; in test [4], 1.19 µM; in test [5], 8.49 µM; in [6] it was 12.1 µM. For the same molecule, the GI50 in test [7] is 0.148 µM; in test [8] it was 1.21 µM; in [9] it was 2.19 µM; in [10], 4.97 µM. Besides, the concentration for total growth inhibition (TGI) is greater than 100 µM in test [1]; greater than 100 µM in test [2]; 33.5 µM in test [3]; 25.8 µM in [4]; 26.2 µM in [5]; 88.4 µM in [6]. The TGI in test [7] was found to be 2.18 µM; in test [8], 12.5 µM; in [9] it was 15.3 µM; in test [10] it was 20.9 µM.

On to `C=C(C)C(=O)O[C@H]1CC2=CC(CC(C)=C[C@H]3OC(=O)C(=C)C13)OC2=O` (stereo not given in full), for which the TGI in test [1], in [2], in [3], in [4], in test [5] and in test [6] was greater than 100 µM throughout. Further, the TGI worked out at 22.6 µM in test [7], 70.5 µM in [8], 72.4 µM in [9] and 11.8 µM in [10].

With `CN(CCCN(C)CCC1CCCCC1)CCC1CCCCC1`, the GI50 in test [1] is 1.27 µM; in [2], 9.8 µM; in [3], 1.46 µM; in test [4], 1.97 µM; in [5], 1.7 µM; in test [6] it was 1.6 µM. The GI50 in test [7] was 1.62 µM; in test [8] it was 3.95 µM; in test [9], 2.19 µM; in test [10] it was 0.319 µM. In addition, the concentration for total growth inhibition (TGI) in test [1] was 2.59 µM; in test [2], 24.1 µM; in test [3], 3.02 µM; in test [4] it was 7.48 µM; in test [5] it was 3.53 µM; in test [6], 3.23 µM. The TGI in [7] was 3.55 µM; in test [8], 15 µM; in test [9], 4.84 µM; in test [10] it was 8.61 µM.

Turning to `COc1cc2c(Cc3cc(OCc4ccccc4)ccc3N)nccc2c(OC)c1OC`, the TGI in test [1], in test [2], in test [3], in test [4], in test [5] and in [6] was greater than 10 µM throughout. The TGI in [7], in test [8], in [9] and in test [10] was greater than 10 µM in each case.

As for `O=C(NC1C=Nc2ccccc2NC1=O)c1ccccc1Cl` (stereo not given), the TGI in [1], in [2], in test [3], in [4], in test [5] and in test [6] was greater than 100 µM each time. Moreover, the TGI in [7] is greater than 100 µM; in test [8], greater than 100 µM; in test [9] it was greater than 100 µM; in [10], 54.1 µM.

As for `Cc1c(C(N)=O)sc2c1c(=O)n(Cc1ccccc1)c1nnc(S(=O)(=O)CC(=O)Nc3ccc(Cl)cc3)n21`, the GI50 in test [1] was 5.3 µM; in [2], 2.3 µM; in test [3], 3.28 µM; in test [4], 1.99 µM; in [5] it was 2.75 µM; in test [6], 18.7 µM. Besides, the GI50 in [7] is 4.38 µM; in [8], 5.27 µM; in test [9], 2.83 µM; in test [10], 40.7 µM. In addition, the TGI is 21.2 µM in [1]; 6.04 µM in test [2]; 26.2 µM in test [3]; 4.25 µM in test [4]; 6.5 µM in [5]; greater than 100 µM in test [6]. For the same molecule, the concentration for total growth inhibition (TGI) was 19.2 µM in test [7], 18 µM in [8], 7.18 µM in [9] and greater than 100 µM in test [10].

Regarding `COC(=O)C1=C(c2ccc(Cl)cc2)C(O)N=C(NN)N1` (stereo not given), the TGI in [1], in test [2], in test [3], in test [4], in test [5] and in test [6] was greater than 100 µM throughout. Also, the TGI in test [7], in test [8], in [9] and in test [10] was greater than 100 µM each time.

In the case of `CN(C)c1ncnc2c1ccn2C1OC(CO)C(O)C1O` (stereo not given), the GI50 was 16.1 µM in test [1]; 13.6 µM in test [2]; 6.48 µM in [3]; greater than 100 µM in test [4]; greater than 33.5 µM in test [5]; 1.89 µM in test [6]. The GI50 in test [7] is 1.83 µM; in test [8], 0.938 µM; in test [9], greater than 100 µM; in test [10] it was 0.316 µM. The total growth inhibition concentration (TGI) in test [1] was greater than 100 µM; in test [2], greater than 100 µM; in [3], greater than 100 µM; in test [4] it was greater than 100 µM; in [5] it was greater than 100 µM; in test [6], 18.1 µM. For the same molecule, the TGI is greater than 100 µM in test [7], greater than 34.6 µM in test [8], greater than 100 µM in test [9] and 1.89 µM in [10].

Take `COC(=O)Nc1nc2ccc(S(=O)(=O)c3ccc(NC(=O)Nc4cc(C(F)(F)F)ccc4F)cc3)cc2[nH]1`: the GI50 in test [1], in test [2], in test [3], in [4], in [5] and in [6] was greater than 25 µM each time. In addition, the GI50 in test [7], in test [8], in [9] and in test [10] was greater than 25 µM in each case. The TGI in test [1], in test [2], in test [3], in test [4], in test [5] and in [6] was greater than 25 µM in each case. In addition, the TGI in test [7], in test [8], in [9] and in [10] was greater than 25 µM in each case.

For `CN(C)CC1=Nc2cccc3cccc(c23)N1`, the TGI was 34.7 µM in test [1]; greater than 100 µM in [2]; greater than 100 µM in [3]; 32.5 µM in test [4]; 35.9 µM in [5]; 32.3 µM in test [6]. Moreover, the TGI in test [7] is 32.3 µM; in test [8], 30.5 µM; in test [9], 35.5 µM; in test [10], 45.2 µM.

Turning to `CC(C)=CCc1cc(C2COc3cc4c(c(O)c3C2=O)C=CC(C)(C)O4)c(O)cc1O` (stereo not given), the TGI in [1] came to 26.2 µM; in [2] it was 27.9 µM; in test [3], 43.5 µM; in test [4], 35.7 µM; in [5] it was 34.3 µM; in test [6], 32.7 µM. Also, the TGI in test [7] was determined as 31.7 µM; in [8], 27.3 µM; in test [9], 31.7 µM; in test [10], 31.1 µM.

Take `O=[N+]([O-])c1cc2c(ccc3occc32)o1`: the GI50 was 1.41 µM in test [1]; 3.21 µM in test [2]; 2.04 µM in test [3]; 3.56 µM in test [4]; 2.02 µM in test [5]; 1.88 µM in [6]. Also, the GI50 is 5.46 µM in [7], 3.77 µM in [8], 2.03 µM in test [9] and 1.59 µM in [10]. The total growth inhibition concentration (TGI) in [1] was determined as 3 µM; in test [2] it was 12.4 µM; in [3], 5.75 µM; in [4], 16.4 µM; in test [5], 4.55 µM; in test [6], 3.88 µM. Further, the TGI in test [7] was 31.5 µM; in test [8], 15.8 µM; in [9], 4.56 µM; in test [10], 6.09 µM.
